Measured values from paper PMC3777804 (Journal of computer-aided molecular design, 2013).

System: cell-cell fusion of TZM-bl target cells and HL2/3 effector cells (HXB2 Env)
Assay: cell-cell fusion, luciferase reporter
Format: cell-based, HIV-1
Conditions: read-out: IC50 CCF, 6 hours, 1% DMSO, results ±50%

| Substance | IC50 |
| --- | --- |
| [Phe]-Trp | 9 µM |
| [Trp]-Phe | 4 µM |
| [Trp]-Trp | 19 µM |
